The subject of assay [1] is Ki67-positive cells. Description: Ki67 immunohistochemistry of 4T1 tumors (proliferation). As to conditions: 0.2 mg·kg^−1 i.v.; n = 3; p = 0.04 vs control. It counts as in vivo, murine. How it is done: Figure 2 Loop formation is important for the antitumor activity of VGB3. (A) To investigate the efficacy of VGB3 peptides in vivo 13 days after transplantation of a 4T1 murine MCT into female BALB/c mice (the tumor volume ~150 mm^3), the treatment groups received 0.2 mg·kg^−1 (once every 2 days, i.v.) of either the C-VGB3 or L-VGB3 and the control group received PBS for 20 days. Error bars denote ± SEM. n = 6; **** p < 0.0001, ns = not significant; two-way ANOVA. (B) Investigation of C-VGB3 and L-VGB3 effects on mice weight. […] (C,D) Immunohistochemical (IHC) analyses of CD31 and Ki67 for the C-VGB3-, L-VGB3- and PBS-treated tumors. For IHC staining, the sections of tumor tissues were incubated with the primary mouse monoclonal antibodies for CD31 (1:2000 (v/v)) and Ki67 (5 µg·mL^−1). […] Photographs were taken at 40× magnification. Error bars denote ± SEM. n = 3; * 0.02 ≤ p ≤ 0.04, ns = not significant; one-way ANOVA.
For immunohistochemistry staining, deparaffinized tumor sections were incubated overnight at 4 °C with mouse monoclonal primary anti-Ki67 (5 µg·mL^−1) or anti-CD31 (1:2000 (v/v)). The antigens were detected using 3,3-diaminobenzidine. All images were captured and analyzed with an Olympus BX51 microscope (Olympus America, New York, NY, USA).

Assay [2] deals with HUVECs. Description: tube formation assay on Matrigel, HUVECs. It counts as cell-based, human. The settings on record: 0.40 μM; 12 h; VEGF 20 ng·mL^−1; n = 3; p < 0.001. How it is done:
Figure 4 Inhibition of EC proliferation and tubulogenesis by C-VGB3 through abrogation of VEGFR2-mediated signaling pathways. (A) MTT assay was performed to investigate C-VGB3 effect on the proliferation of ECs. C-VGB3 (0–0.91 μM) was used with (20 ng·mL^−1) or without VEGF. The control cells were treated with no peptide. After 24 and 48 h, the absorbance was measured at 570 nm utilizing an ELISA plate reader (Space Fax 2100, Awareness, Westport, CT, USA). Error bars indicate ± SEM. n = 3; * p = 0.02, ** p = 0.001, *** and ### p = 0.0001, **** and #### p < 0.0001, ns = not significant; one-way ANOVA. (B) The anti-tubulogenesis effect of C-VGB3 in VEGF (20 ng·mL^−1)-induced HUVECs. Image analysis performed by Wimasis image analysis software is illustrated in the bottom panel. Error bars indicate ±SEM. n = 3; *** 0.0004 ≤ p ≤ 0.0001; unpaired Student’s t-test. To evaluate the mechanism by which C-VGB3 diminished cell proliferation and tube formation, Western blot analysis was performed for HUVECs. […] Error bars indicate ± SEM. n = 3; * p = 0.02, ** p = 0.001, *** p = 0.0001, **** p < 0.0001; one-way ANOVA. […] Error bars indicate ± SEM. n = 3; * p = 0.02, ** p = 0.001, **** p < 0.0001; one-way ANOVA.
Tube formation of HUVECs was assayed on the Matrigel. After pre-labeling with PKH26 cell tracker (Sigma-Aldrich, St. Louis, MO, USA) HUVECs were plated into 24-well plates pre-coated with Matrigel Basement Membrane Matrix (BD Biosciences, San Jose, CA, USA). C-VGB3 (0.40 μM) was added to the medium, and images were manually captured after 12 h using an Olympus BX-51 fluorescence microscope. Quantitative analyses were performed by Wimasis online software.

This is an account of results in paper PMC10305181, “A VEGFB-Based Peptidomimetic Inhibits VEGFR2-Mediated PI3K/Akt/mTOR and PLCγ/ERK Signaling and Elicits Apoptotic, Antiangiogenic, and Antitumor Activities” (Pharmaceuticals, 2023).

Bridge positions count the residues as written; N and C are the ends. Peptide text beside a SMILES is read from it.

Turning to `CC(C)C[C@@H]1NC(=O)CNC(=O)[C@H](CC(=O)O)NC(=O)[C@H](CC(=O)O)NC(=O)[C@@H]2CCCN2C(=O)[C@@H]2CCCN2C(=O)[C@H](CCCNC(=N)N)NC(=O)[C@@H](NC(=O)[C@@H](N)CCC(=O)O)CSSC[C@@H](C(=O)O)NC1=O` [C-VGB3] (H-ECRPPDDGLC-OH; disulfide 2-10), in assay [1], the “decrease in Ki67-positive cells” value worked out at 60%. Besides, in assay [2], the “decrease in tube branching points” value was found to be 81.46%, the “decrease in tube length” value turned out to be 44.37% and the “decrease in tube numbers” value came to 58.64%.
